Results published in patent US10253081B2, “Glucagon analogues” (Zealand Pharma A/S, priority 2012, dated 2019).
Read-outs that look alike come from different tables or passages of the source. *1 amine or outer side, *2 acyl side, *3 side chain or, on linkers, in order; H or OH if unused. Where a SMILES comes first, the peptide text is derived from it. Side-chain parts run from the residue outwards. [ ]: non-standard residue; d: D form. The star is where a group is joined. γGlu = O=C(O)[C@H](CCC(=O)[*:2])N[*:1]; Palmitoyl = CCCCCCCCCCCCCCCC(=O)*; Aib = CC(C)(N)C(=O)O

What was measured:
[1] = Oral glucose tolerance test (OGTT); format: in vivo, C57BL/6J mice; settings: blood glucose AUC 0-120 min, 10 nmol/kg s.c. 4 h before oral glucose 2 g/kg
Procedure: Male C57BL/6J mice were fasted for 10 h before they received an oral glucose bolus of 2 g/kg body weight. Peptides were dissolved in saline buffered with 25 mM phosphate and administered at a dose of 10 nmol/kg body weight by subcutaneous injection 4 h before the glucose bolus. Control animals received a vehicle injection only. Group size was 7 animals per group. A pre-dose and a pre-glucose (0 min) blood sample were obtained by tail bleeding and blood glucose was measured with a glucometer. Additional samples of tail blood for measuring blood glucose were obtained 15 min, 30 min, 60 min, 90 min and 120 min after the glucose challenge. […] Calculation of AUC was done by the trapezoidal rule without baseline correction. The data are presented as mean±S.E.M. Statistical comparisons were conducted by one-way ANOVA followed by Tukey's post test. Vehicle alone was used as a control.

[2] = Pharmacokinetic parameters after subcutaneous and intravenous administration to mice; format: in vivo; settings: male, mouse, plasma, 20 nmol/kg, C57Bl/6J mice; for half-life: read-out: Terminal half life (converted); for MRT: read-out: Mean Residence Time
Procedure: Pharmacokinetic parameters of the test compounds were determined after subcutaneous and intravenous administration to C57Bl/6J mice.
8 week old male C57Bl/6J mice were obtained from Taconic (Denmark) weighing approximately 20-25 g at time of arrival at the test facility. The mice were caged in European standard cages type III with light cycle of 12-hour dark and 12-hour light (lights on 06.00). Both diet, Altromin 1324 (Altromin, Germany), and water was administered ad libitum during the whole experimental period. The 8-11 week animals were imported to the laboratory at least 7 days before the start up of the experimental procedure in order to assure proper acclimatization. After sampling the mice were euthanized by cervical dislocation.
The compounds were first dissolved in 0.096% aqueous ammonia to a nominal concentration of 2 mg/ml, and then diluted to the desired dosing strength (4 μM) in sterile PBS containing 25 mM phosphate buffer, pH 7.4. Subcutaneous and intravenous injections corresponding to 20 nmol/kg were given. The GLP-1-glucagon dual agonists were administered for subcutaneous dosing in the neck region and via a lateral tail vein for intravenous dosing.
Blood samples (250 μl) were collected from the periorbital plexus at time points 0.5, 2, 4, 6, 12, 16, 20, 24 h for subcutaneous and 10, 30 min, 3, 6, 12, 18, 24 h for intravenous administration into ice-chilled K3EDTA tubes and centrifuged for 5 minutes at 4° C. within 20 minutes of sampling. Plasma (>100 μl) was separated to ice-chilled Micronic tubes, immediately frozen, and kept at −70° C. until analysed for plasma concentration for the respective GLP-1-glucagon compound using LC-MS/MS. Individual plasma concentration-time profiles were analysed by a non-compartmental approach in WinNonLin v6.3 (Pharsight inc, Mountain View, Calif., USA), and the resulting pharmacokinetic parameters determined.

[3] = molecular target: T1, human glucagon receptor (Glucagon-R) (Homo sapiens, UniProt P47871); experiment: Glucagon receptor efficacy assay (cAMP AlphaScreen, CHO cells); format: cell-based; settings: Table 1A; CHO cells expressing human Glucagon-R, cAMP; read-out: EC50 hGCGR CHO-K1
T1 construct: expressed in transfected cells
T1 sequence (P47871 26-477): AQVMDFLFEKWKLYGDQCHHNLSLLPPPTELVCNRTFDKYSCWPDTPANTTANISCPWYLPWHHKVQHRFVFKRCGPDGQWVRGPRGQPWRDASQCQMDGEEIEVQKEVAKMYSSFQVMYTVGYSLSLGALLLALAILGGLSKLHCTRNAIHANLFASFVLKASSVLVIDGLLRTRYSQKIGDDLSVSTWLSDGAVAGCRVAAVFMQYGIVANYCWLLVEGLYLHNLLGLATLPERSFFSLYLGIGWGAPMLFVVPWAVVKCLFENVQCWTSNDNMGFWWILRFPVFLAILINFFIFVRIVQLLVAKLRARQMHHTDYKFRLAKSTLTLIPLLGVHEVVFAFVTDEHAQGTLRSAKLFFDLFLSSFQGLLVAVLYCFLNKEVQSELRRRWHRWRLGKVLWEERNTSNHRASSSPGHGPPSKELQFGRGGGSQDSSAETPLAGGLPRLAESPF
Method in brief: (§1)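 Stably transfected CHO clones expressing human GLP-1R or glucagon receptor were treated with increasing peptide concentrations for 15 min at room temperature in KRBH containing 0.1 mM IBMX. After lysis, cAMP was quantified by AlphaScreen; EC50 and efficacy relative to GLP-1 or glucagon reference came from curve fitting.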

[4] = molecular target: T2, human glucagon-like peptide 1 receptor (GLP-1R) (Homo sapiens, UniProt P43220); experiment: GLP-1 receptor efficacy assay (cAMP AlphaScreen, CHO cells); format: cell-based; settings: Table 1A; for EC50: CHO cells expressing human GLP-1-R, cAMP, read-out: EC50 hGLP-1R CHO-K1; for Ratio GLP-1/Glucagon: EC50 [GLP-1R]/EC50 [Glucagon-R]
T2 construct: expressed in transfected cells
T2 sequence (P43220 24-463): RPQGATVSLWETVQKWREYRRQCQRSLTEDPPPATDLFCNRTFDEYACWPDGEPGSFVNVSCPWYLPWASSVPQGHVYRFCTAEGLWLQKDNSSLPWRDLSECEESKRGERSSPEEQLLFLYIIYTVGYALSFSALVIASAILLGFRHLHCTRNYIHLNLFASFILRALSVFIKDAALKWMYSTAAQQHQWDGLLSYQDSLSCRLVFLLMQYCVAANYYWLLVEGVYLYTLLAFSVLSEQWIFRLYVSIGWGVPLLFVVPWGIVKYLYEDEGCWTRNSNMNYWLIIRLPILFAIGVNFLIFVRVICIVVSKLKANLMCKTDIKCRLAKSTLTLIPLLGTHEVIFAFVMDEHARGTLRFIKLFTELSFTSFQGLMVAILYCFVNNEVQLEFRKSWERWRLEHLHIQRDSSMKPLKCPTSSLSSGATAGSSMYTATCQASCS
Method in brief: as §1

SMILES | AUC (% Ctrl) [1] [% Ctrl] | clearance ([2]; IV) [mL/min/kg] | half-life ([2]; IV) [h] | Tmax ([2]; SC) [h] | bioavailability ([2]; SC) [%] | MRT ([2]; SC) [h] | half-life ([2]; SC) [h] | EC50 [3] [pM] | EC50 [4] [pM] | Ratio GLP-1/Glucagon [4]
CCCCCCCCCCCCCCCC(=O)N[C@@H](CCC(=O)NCCCC[C@H](NC(=O)[C@H](CO)NC(=O)[C@H](CC(=O)O)NC(=O)[C@H](CC(C)C)NC(=O)[C@H](Cc1ccc(O)cc1)NC(=O)[C@H](CCCNC(=N)N)NC(=O)[C@H](CO)NC(=O)[C@H](Cc1ccc(O)cc1)NC(=O)[C@H](CC(=O)O)NC(=O)[C@H](CO)NC(=O)[C@@H](NC(=O)[C@H](Cc1ccccc1)NC(=O)[C@@H](NC(=O)CNC(=O)[C@H](CCC(N)=O)NC(=O)[C@H](CO)NC(=O)[C@@H](N)Cc1c[nH]cn1)[C@@H](C)O)[C@@H](C)O)C(=O)N[C@@H](C)C(=O)N[C@@H](C)C(=O)N[C@@H](CCC(=O)O)C(=O)N[C@@H](CC(=O)O)C(=O)N[C@@H](Cc1ccccc1)C(=O)N[C@H](C(=O)N[C@@H](CCC(=O)O)C(=O)N[C@@H](Cc1c[nH]c2ccccc12)C(=O)N[C@@H](CC(C)C)C(=O)N[C@@H](CC(C)C)C(=O)N[C@@H](CCCNC(=N)N)C(=O)N[C@@H](C)C(N)=O)C(C)C)C(=O)O [Compound 6, H-HSQGTFTSDYSRYLDS-K(Hexadecanoyl-isoGlu)-AAEDFVEWLLRA-NH2] (H-HSQGTFTSDYSRYLDSK([γGlu-Palmitoyl])AAEDFVEWLLRA-NH2) | 50 | 0.157 | 3.7 | 4 | 47 | 10.6 | 4.3 | 460 | 350 | 0.76
CCCCCCCCCCCCCCCC(=O)N[C@@H](CCC(=O)NCCCC[C@H](NC(=O)[C@H](CCC(=O)O)NC(=O)[C@H](CC(=O)O)NC(=O)[C@H](CC(C)C)NC(=O)[C@H](Cc1ccc(O)cc1)NC(=O)[C@H](CCCCN)NC(=O)[C@H](CO)NC(=O)[C@H](Cc1ccc(O)cc1)NC(=O)[C@H](CC(=O)O)NC(=O)[C@H](CO)NC(=O)[C@@H](NC(=O)[C@H](Cc1ccccc1)NC(=O)[C@@H](NC(=O)CNC(=O)[C@H](CCC(N)=O)NC(=O)C(C)(C)NC(=O)[C@@H](N)Cc1c[nH]cn1)[C@@H](C)O)[C@@H](C)O)C(=O)N[C@@H](C)C(=O)N[C@@H](C)C(=O)N[C@@H](CCCCN)C(=O)N[C@@H](CC(=O)O)C(=O)N[C@@H](Cc1ccccc1)C(=O)N[C@H](C(=O)N[C@@H](CCC(=O)O)C(=O)N[C@@H](Cc1c[nH]c2ccccc12)C(=O)N[C@@H](CC(C)C)C(=O)N[C@@H](CC(C)C)C(=O)N[C@@H](CO)C(=O)N[C@@H](C)C(N)=O)[C@@H](C)CC)C(=O)O [Compound 4, H-H-Aib-QGTFTSDYSKYLDE-K(Hexadecanoyl-isoGlu)-AAKDFIEWLLSA-NH2] (H-H[Aib]QGTFTSDYSKYLDEK([γGlu-Palmitoyl])AAKDFIEWLLSA-NH2) | 65 | 0.185 | 7.4 | 4 | 53 | 12.5 | 6.4 | 1560 | 380 | 0.24
CCCCCCCCCCCCCCCC(=O)N[C@@H](CCC(=O)NCCCC[C@H](NC(=O)[C@H](CO)NC(=O)[C@H](CC(=O)O)NC(=O)[C@H](CC(C)C)NC(=O)[C@H](Cc1ccc(O)cc1)NC(=O)[C@H](CCCCN)NC(=O)[C@H](CO)NC(=O)[C@H](Cc1ccc(O)cc1)NC(=O)[C@H](CC(=O)O)NC(=O)[C@H](CO)NC(=O)[C@@H](NC(=O)[C@H](Cc1ccccc1)NC(=O)[C@@H](NC(=O)CNC(=O)[C@H](CCC(N)=O)NC(=O)[C@H](CO)NC(=O)[C@@H](N)Cc1c[nH]cn1)[C@@H](C)O)[C@@H](C)O)C(=O)N[C@@H](C)C(=O)N[C@@H](C)C(=O)N[C@@H](Cc1c[nH]cn1)C(=O)N[C@@H](CC(=O)O)C(=O)N[C@@H](Cc1ccccc1)C(=O)N[C@H](C(=O)N[C@@H](CCC(=O)O)C(=O)N[C@@H](Cc1c[nH]c2ccccc12)C(=O)N[C@@H](CC(C)C)C(=O)N[C@@H](CC(C)C)C(=O)N[C@@H](CCCNC(=N)N)C(=O)N[C@@H](C)C(=O)O)C(C)C)C(=O)O [Compound 3, H-HSQGTFTSDYSKYLDS-K(Hexadecanoyl-isoGlu)-AAHDFVEWLLRA-OH] (H-HSQGTFTSDYSKYLDSK([γGlu-Palmitoyl])AAHDFVEWLLRA-OH) | 70 | 0.192 | 4.1 | 6 | 52 | 9.8 | 3.9 | 350 | 910 | 2.60
CCCCCCCCCCCCCCCC(=O)N[C@@H](CCC(=O)NCCCC[C@H](NC(=O)[C@H](CO)NC(=O)[C@H](CC(=O)O)NC(=O)[C@H](CC(C)C)NC(=O)[C@H](Cc1ccc(O)cc1)NC(=O)[C@H](CCCCN)NC(=O)[C@H](CO)NC(=O)[C@H](Cc1ccc(O)cc1)NC(=O)[C@H](CC(=O)O)NC(=O)[C@H](CO)NC(=O)[C@@H](NC(=O)[C@H](Cc1ccccc1)NC(=O)[C@@H](NC(=O)CNC(=O)[C@H](CCC(N)=O)NC(=O)[C@H](CO)NC(=O)[C@@H](N)Cc1c[nH]cn1)[C@@H](C)O)[C@@H](C)O)C(=O)N[C@@H](C)C(=O)N[C@@H](C)C(=O)N[C@@H](Cc1c[nH]cn1)C(=O)N[C@@H](CC(=O)O)C(=O)N[C@@H](Cc1ccccc1)C(=O)N[C@H](C(=O)N[C@@H](CCC(=O)O)C(=O)N[C@@H](Cc1c[nH]c2ccccc12)C(=O)N[C@@H](CC(C)C)C(=O)N[C@@H](CC(C)C)C(=O)N[C@@H](CCCNC(=N)N)C(=O)O)C(C)C)C(=O)O [Compound 9, H-HSQGTFTSDYSKYLDS-K(Hexadecanoyl-isoGlu)-AAHDFVEWLLR-OH] (H-HSQGTFTSDYSKYLDSK([γGlu-Palmitoyl])AAHDFVEWLLR-OH) | 57 | 0.638 | 0.9 | 2 | 34 | 4.7 | 2.9 | 250 | 350 | 1.40
CCCCCCCCCCCCCCCC(=O)N[C@@H](CCC(=O)NCCCC[C@H](NC(=O)[C@H](CO)NC(=O)[C@H](CC(=O)O)NC(=O)[C@H](CC(C)C)NC(=O)[C@H](Cc1ccc(O)cc1)NC(=O)[C@H](CCCNC(=N)N)NC(=O)[C@H](CO)NC(=O)[C@H](Cc1ccc(O)cc1)NC(=O)[C@H](CC(=O)O)NC(=O)[C@H](CO)NC(=O)[C@@H](NC(=O)[C@H](Cc1ccccc1)NC(=O)[C@@H](NC(=O)CNC(=O)[C@H](CCC(N)=O)NC(=O)[C@H](CO)NC(=O)[C@@H](N)Cc1c[nH]cn1)[C@@H](C)O)[C@@H](C)O)C(=O)N[C@@H](C)C(=O)N[C@@H](C)C(=O)N[C@@H](Cc1c[nH]cn1)C(=O)N[C@@H](CC(=O)O)C(=O)N[C@@H](Cc1ccccc1)C(=O)N[C@H](C(=O)N[C@@H](CCC(=O)O)C(=O)N[C@@H](Cc1c[nH]c2ccccc12)C(=O)N[C@@H](CC(C)C)C(=O)N[C@@H](CC(C)C)C(=O)N[C@@H](CO)C(=O)N[C@@H](C)C(N)=O)C(C)C)C(=O)O [Compound 12, H-HSQGTFTSDYSRYLDS-K(Hexadecanoyl-isoGlu)-AAHDFVEWLLSA-NH2] (H-HSQGTFTSDYSRYLDSK([γGlu-Palmitoyl])AAHDFVEWLLSA-NH2) | 56 | 0.225 | 4.1 | 6 | 43 | 8.3 | 4.3 | 430 | 370 | 0.86
